Data taken from US12319672B2, “Alpha-D-galactopyranoside derivatives” (Idorsia Pharmaceuticals Ltd, priority 2019, dated 2025).

Key:
[1] = biological target: human Gal-3 (hGal-3) (Homo sapiens (Human), UniProt P17931); assay: Competitive binding assay: binding of biotinylated hGal-3 to microplate-adsorbed asialofetuin (ASF); details: Activity on hGal-3; mean values of several measurements
Outline: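 Biotin-hGal-3/hGal-1 300-1000 ng/mL + cpd (DMSO dilutions) on ASF-coated plate, 3 h 4° C; wash; SA-HRP 80 ng/mL 1 h 4° C; wash; ABTS. IC50 = mean of several runs. hGal-1 preferably Cys→Ser (all six) mutant.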

[2] = biological target: human Gal-1 (hGal-1); assay: Competitive binding assay: binding of biotinylated hGal-1 to microplate-adsorbed asialofetuin (ASF); details: Activities on hGal-1; mean values of several measurements
Outline: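 Compounds diluted in DMSO competed with biotinylated hGal-3 or hGal-1 (300-1000 ng/mL) for binding to plate-adsorbed asialofetuin for 3 h at 4° C. Bound galectin was detected with streptavidin-peroxidase (80 ng/mL, 1 h, 4° C) and ABTS substrate; IC50 reported as mean of several measurements.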

Sequence of human Gal-1 (hGal-1) (P09382 2-135 limits assumed): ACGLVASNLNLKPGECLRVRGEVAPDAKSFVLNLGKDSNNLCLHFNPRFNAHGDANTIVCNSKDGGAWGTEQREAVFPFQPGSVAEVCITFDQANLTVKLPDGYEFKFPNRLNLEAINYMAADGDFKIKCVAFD
Sequence of human Gal-3 (hGal-3) (P17931 whole entry): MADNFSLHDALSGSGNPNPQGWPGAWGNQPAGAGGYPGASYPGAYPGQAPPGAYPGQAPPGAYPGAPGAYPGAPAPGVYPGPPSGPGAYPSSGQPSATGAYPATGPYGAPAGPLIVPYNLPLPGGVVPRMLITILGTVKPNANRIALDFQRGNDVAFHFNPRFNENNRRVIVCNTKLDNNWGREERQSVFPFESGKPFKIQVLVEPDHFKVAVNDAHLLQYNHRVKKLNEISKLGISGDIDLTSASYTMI

Row | SMILES | IC50 [1] [µM] | IC50 [2] [µM]
1 | OC[C@H]1O[C@H](CC2CC(C3CCCCC3)=NO2)[C@H](O)[C@@H](n2cc(-c3cc(F)c(F)c(F)c3)nn2)[C@H]1O (stereo partly shown) [Ex 1.05] | 0.48 | 7.18
2 | OC[C@H]1O[C@H](C[C@H]2CC(C3CCCCC3)=NO2)[C@H](O)[C@@H](n2cc(-c3cc(F)c(F)c(F)c3)nn2)[C@H]1O [Ex 1.06] | 1.8 | 22.2
3 | OC[C@H]1O[C@H](C[C@@H]2CC(C3CCCCC3)=NO2)[C@H](O)[C@@H](n2cc(-c3cc(F)c(F)c(F)c3)nn2)[C@H]1O [Ex 1.07] | 0.52 | 4.9
4 | CO[C@@H]1[C@@H](n2cc(-c3cc(F)c(F)c(F)c3)nn2)[C@@H](O)[C@@H](CO)O[C@@H]1CC1CC(C2CCCCC2)=NO1 (stereo partly shown) [Ex 1.08] | 1.08 | 8.74
5 | CO[C@@H]1[C@@H](n2cc(-c3cc(F)c(F)c(F)c3)nn2)[C@@H](O)[C@@H](CO)O[C@@H]1C[C@H]1CC(C2CCCCC2)=NO1 [Ex 1.09] | 2.15 | 27.5
6 | CO[C@@H]1[C@@H](n2cc(-c3cc(F)c(F)c(F)c3)nn2)[C@@H](O)[C@@H](CO)O[C@@H]1C[C@@H]1CC(C2CCCCC2)=NO1 [Ex 1.10] | 0.56 | 5.39
7 | OC[C@H]1O[C@H](CC2CC(C3CCCC3)=NO2)[C@H](O)[C@@H](n2cc(-c3cc(F)c(F)c(F)c3)nn2)[C@H]1O (stereo partly shown) [Ex 1.11] | 0.51 | 5.61
8 | CO[C@@H]1[C@@H](n2cc(-c3cc(F)c(F)c(F)c3)nn2)[C@@H](O)[C@@H](CO)O[C@@H]1CC1CC(C2CCCC2)=NO1 (stereo partly shown) [Ex 1.12] | 0.67 | 3.55
9 | OC[C@H]1O[C@H](CC2CC(c3cncnc3)=NO2)[C@H](O)[C@@H](n2cc(-c3cc(F)c(F)c(F)c3)nn2)[C@H]1O (stereo partly shown) [Ex 1.14] | 0.68 | 2.27
10 | OC[C@H]1O[C@H](CC2CC(c3ccncc3)=NO2)[C@H](O)[C@@H](n2cc(-c3cc(F)c(F)c(F)c3)nn2)[C@H]1O (stereo partly shown) [Ex 1.16] | 0.43 | 6.62
11 | CO[C@@H]1[C@@H](n2cc(-c3cc(F)c(F)c(F)c3)nn2)[C@@H](O)[C@@H](CO)O[C@@H]1CC1CC(C2CCOCC2)=NO1 (stereo partly shown) [Ex 1.19] | 0.53 | 5.58
12 | OC[C@H]1O[C@H](CC2CC(C3CCOCC3)=NO2)[C@H](O)[C@@H](n2cc(-c3cc(F)c(F)c(F)c3)nn2)[C@H]1O (stereo partly shown) [Ex 1.22] | 0.43 | 4.48
13 | OC[C@H]1O[C@H](CC2=NOC(C3CCCCC3)C2)[C@H](O)[C@@H](n2cc(-c3cc(F)c(F)c(F)c3)nn2)[C@H]1O (stereo partly shown) [Ex 1.35] | 1 | 5.58
14 | OC[C@H]1O[C@H](CC2=NOC(Cc3ccccc3)C2)[C@H](O)[C@@H](n2cc(-c3cc(F)c(F)c(F)c3)nn2)[C@H]1O (stereo partly shown) [Ex 1.36] | 2.54 | 10.9
15 | Cc1ncsc1C1CC(C[C@H]2O[C@H](CO)[C@H](O)[C@H](n3cc(-c4cc(F)c(F)c(F)c4)nn3)[C@H]2O)=NO1 (stereo partly shown) [Ex 1.37] | 0.44 | 7.7
16 | OCCC1CC(C[C@H]2O[C@H](CO)[C@H](O)[C@H](n3cc(-c4cc(F)c(F)c(F)c4)nn3)[C@H]2O)=NO1 (stereo partly shown) [Ex 1.38] | 1.42 | 15.9
17 | CC(C)(O)C1CC(C[C@H]2O[C@H](CO)[C@H](O)[C@H](n3cc(-c4cc(F)c(F)c(F)c4)nn3)[C@H]2O)=NO1 (stereo partly shown) [Ex 1.39] | 0.71 | 9.94
18 | CC(C)(C)OC(=O)N1CCC(c2cc(C[C@H]3O[C@H](CO)[C@H](O)[C@H](n4cc(-c5cc(F)c(F)c(F)c5)nn4)[C@H]3O)no2)CC1 [Ex 1.40] | 0.043 | 0.74
19 | CC(C)(C)OC(=O)N1CCC(C2CC(C[C@H]3O[C@H](CO)[C@H](O)[C@H](n4cc(-c5cc(F)c(F)c(F)c5)nn4)[C@H]3O)=NO2)CC1 (stereo partly shown) [Ex 1.41] | 0.45 | 6.29
20 | CC(C)(O)CC1CC(C[C@H]2O[C@H](CO)[C@H](O)[C@H](n3cc(-c4cc(F)c(F)c(F)c4)nn3)[C@H]2O)=NO1 (stereo partly shown) [Ex 1.42] | 1.06 | 3.61
21 | OCc1cc(C[C@H]2O[C@H](CO)[C@H](O)[C@H](n3cc(-c4cc(F)c(F)c(F)c4)nn3)[C@H]2O)no1 [Ex 1.43] | 1.9 | 15.8
22 | CC(=O)O[C@@H]1[C@@H](n2cc(-c3cc(F)c(F)c(F)c3)nn2)[C@@H](O)[C@@H](CO)O[C@@H]1CC1CC(C2CCN(C(=O)OC(C)(C)C)CC2)=NO1 (stereo partly shown) [Ex 1.44] | 0.065 | 1.71
23 | CC(C)(C)OC(=O)N1CCC(C2=NOC(C[C@H]3O[C@H](CO)[C@H](O)[C@H](n4cc(-c5cc(F)c(F)c(F)c5)nn4)[C@H]3O)C2)CC1 (stereo partly shown) [Ex 1.45] | 0.11 | 1.02
24 | CO[C@@H]1[C@@H](n2cc(-c3cc(F)c(F)c(F)c3)nn2)[C@@H](O)[C@@H](CO)O[C@@H]1CC1CC(C2CCN(C(=O)OC(C)(C)C)CC2)=NO1 (stereo partly shown) [Ex 1.46] | 0.29 | 1
25 | CO[C@@H]1[C@@H](n2cc(-c3cc(F)c(F)c(F)c3)nn2)[C@@H](O)[C@@H](CO)O[C@@H]1C[C@H]1CC(C2CCN(C(=O)OC(C)(C)C)CC2)=NO1 [Ex 1.47] | 0.66 | 6.54
26 | CO[C@@H]1[C@@H](n2cc(-c3cc(F)c(F)c(F)c3)nn2)[C@@H](O)[C@@H](CO)O[C@@H]1C[C@@H]1CC(C2CCN(C(=O)OC(C)(C)C)CC2)=NO1 [Ex 1.48] | 0.089 | 0.56
27 | CC(=O)O[C@@H]1[C@@H](n2cc(-c3cc(F)c(F)c(F)c3)nn2)[C@@H](O)[C@@H](CO)O[C@@H]1Cc1cc(C2CCN(C(=O)OC(C)(C)C)CC2)on1 [Ex 1.49] | 0.078 | 2.45
28 | CO[C@@H]1[C@@H](n2cc(-c3cc(F)c(F)c(F)c3)nn2)[C@@H](O)[C@@H](CO)O[C@@H]1Cc1cc(C2CCN(C(=O)OC(C)(C)C)CC2)on1 [Ex 1.50] | 0.063 | 0.57
29 | CC(C)(C)c1cc(C[C@H]2O[C@H](CO)[C@H](O)[C@H](n3cc(-c4cc(F)c(F)c(F)c4)nn3)[C@H]2O)no1 [Ex 1.51] | 0.15 | 2.5

The remaining lines, values ahead:

Row | IC50 [1] [µM] | IC50 [2] [µM] | SMILES
30 | 1.11 | 6.34 | COc1ccc(C2=NOC(C[C@H]3O[C@H](CO)[C@H](O)[C@H](n4cc(-c5cc(F)c(F)c(F)c5)nn4)[C@H]3O)C2)c(Cl)c1 (stereo partly shown) [Ex 1.13]
31 | 0.65 | 3.2 | CO[C@@H]1[C@@H](n2cc(-c3cc(F)c(F)c(F)c3)nn2)[C@@H](O)[C@@H](CO)O[C@@H]1CC1CC(c2cncnc2)=NO1 (stereo partly shown) [Ex 1.15]
32 | 0.7 | 8.79 | CO[C@@H]1[C@@H](n2cc(-c3cc(F)c(F)c(F)c3)nn2)[C@@H](O)[C@@H](CO)O[C@@H]1CC1CC(c2ccncc2)=NO1 (stereo partly shown) [Ex 1.17]
33 | 0.97 | 14.1 | OC[C@H]1O[C@H](CC2CC(c3cccc(Cl)c3)=NO2)[C@H](O)[C@@H](n2cc(-c3cc(F)c(F)c(F)c3)nn2)[C@H]1O (stereo partly shown) [Ex 1.18]
34 | 0.24 | 4.27 | CO[C@@H]1[C@@H](n2cc(-c3cc(F)c(F)c(F)c3)nn2)[C@@H](O)[C@@H](CO)O[C@@H]1CC1CC(c2ccc3[nH]c(=O)oc3c2)=NO1 (stereo partly shown) [Ex 1.20]
35 | 0.15 | 4.77 | O=c1[nH]c2ccc(C3=NOC(C[C@H]4O[C@H](CO)[C@H](O)[C@H](n5cc(-c6cc(F)c(F)c(F)c6)nn5)[C@H]4O)C3)cc2o1 (stereo partly shown) [Ex 1.21]
36 | 0.7 | 6.8 | COc1ccc(C2=NOC(C[C@H]3O[C@H](CO)[C@H](O)[C@H](n4cc(-c5cc(F)c(F)c(F)c5)nn4)[C@H]3O)C2)cn1 (stereo partly shown) [Ex 1.23]
37 | 0.8 | 13.3 | COc1cc(C2=NOC(C[C@H]3O[C@H](CO)[C@H](O)[C@H](n4cc(-c5cc(F)c(F)c(F)c5)nn4)[C@H]3O)C2)ccn1 (stereo partly shown) [Ex 1.24]
38 | 0.67 | 4.97 | COc1ccc(C2=NOC(C[C@H]3O[C@H](CO)[C@H](O)[C@H](n4cc(-c5cc(F)c(F)c(F)c5)nn4)[C@H]3O)C2)cc1O (stereo partly shown) [Ex 1.25]
39 | 1.15 | 17.5 | OC[C@H]1O[C@H](CC2CC(c3ccc4[nH]cnc4c3)=NO2)[C@H](O)[C@@H](n2cc(-c3cc(F)c(F)c(F)c3)nn2)[C@H]1O (stereo partly shown) [Ex 1.26]
40 | 0.41 | 6.54 | OC[C@H]1O[C@H](CC2CC(c3cn[nH]c3)=NO2)[C@H](O)[C@@H](n2cc(-c3cc(F)c(F)c(F)c3)nn2)[C@H]1O (stereo partly shown) [Ex 1.27]
41 | 0.47 | 18.9 | Cn1c(=O)[nH]c2cc(C3=NOC(C[C@H]4O[C@H](CO)[C@H](O)[C@H](n5cc(-c6cc(F)c(F)c(F)c6)nn5)[C@H]4O)C3)ccc21 (stereo partly shown) [Ex 1.28]
42 | 2.14 | > 100 | CO[C@@H]1[C@@H](n2cc(-c3cc(F)c(F)c(F)c3)nn2)[C@@H](O)[C@@H](CO)O[C@@H]1C[C@H]1CC(c2ccc3[nH]c(=O)oc3c2)=NO1 [Ex 1.29]
43 | 0.33 | 3.09 | CO[C@@H]1[C@@H](n2cc(-c3cc(F)c(F)c(F)c3)nn2)[C@@H](O)[C@@H](CO)O[C@@H]1C[C@@H]1CC(c2ccc3[nH]c(=O)oc3c2)=NO1 [Ex 1.30]
44 | 1.13 | 13.5 | O=c1[nH]c2ccc(C3=NO[C@@H](C[C@H]4O[C@H](CO)[C@H](O)[C@H](n5cc(-c6cc(F)c(F)c(F)c6)nn5)[C@H]4O)C3)cc2o1 [Ex 1.31]
45 | 0.053 | 1.15 | O=c1[nH]c2ccc(C3=NO[C@@H](C[C@H]4O[C@H](CO)[C@H](O)[C@H](n5cc(-c6cc(F)c(F)c(F)c6)nn5)[C@H]4O)C3)cc2o1 [Ex 1.32]
46 | 0.8 | 7.94 | OC[C@H]1O[C@H](CC2CC(c3ccc4cn[nH]c4c3)=NO2)[C@H](O)[C@@H](n2cc(-c3cc(F)c(F)c(F)c3)nn2)[C@H]1O (stereo partly shown) [Ex 1.33]
47 | 0.88 | 10.6 | OC[C@H]1O[C@H](CC2CC(c3ccc4[nH]ncc4c3)=NO2)[C@H](O)[C@@H](n2cc(-c3cc(F)c(F)c(F)c3)nn2)[C@H]1O (stereo partly shown) [Ex 1.34]
